Assay results as given in patent US12293809B2, “Workflow for generating compounds with biological activity against a specific biological target” (INSILICO MEDICINE IP LIMITED, priority 2019, dated 2025).

Tests used:
[1] = test system: CTGF expression in MRC-5 cells; test: MRC-5 fibrosis assay, TGF-β stimulated (Western blot); type: cell-based
Procedure: (§1) After 20 h growth in the reduced serum medium, the cells were treated with indicated doses of compounds for 30 minutes. Subsequently, the cells were stimulated with 10 ng/mL TGF-β (R&D Systems, 240-B-002) for 48 or 72 hours.

[2] = test system: α-actin expression in MRC-5 cells; test: as above; type: cell-based
Procedure: as §1

LX-2 cells = test: Cytotoxicity, CellTiter-Glo cell viability assay; type: cell-based, human; conditions: 72 h
Procedure: LX-2 cells were seeded into 96 well plates in the presence of a compound and allowed to grow for 72 h before CellTiter-Glo® Luminescent Cell Viability Assay was carried out according the manufacturer's instruction.

CYP1A2 = target: T1, CYP1A2 (Homo sapiens, UniProt P05177); test: Cytochrome inhibition in HLM; type: in vitro ADME
T1 construct: from tissue; host or cells: human liver microsomes (HLM)
T1 sequence (P05177 1-516): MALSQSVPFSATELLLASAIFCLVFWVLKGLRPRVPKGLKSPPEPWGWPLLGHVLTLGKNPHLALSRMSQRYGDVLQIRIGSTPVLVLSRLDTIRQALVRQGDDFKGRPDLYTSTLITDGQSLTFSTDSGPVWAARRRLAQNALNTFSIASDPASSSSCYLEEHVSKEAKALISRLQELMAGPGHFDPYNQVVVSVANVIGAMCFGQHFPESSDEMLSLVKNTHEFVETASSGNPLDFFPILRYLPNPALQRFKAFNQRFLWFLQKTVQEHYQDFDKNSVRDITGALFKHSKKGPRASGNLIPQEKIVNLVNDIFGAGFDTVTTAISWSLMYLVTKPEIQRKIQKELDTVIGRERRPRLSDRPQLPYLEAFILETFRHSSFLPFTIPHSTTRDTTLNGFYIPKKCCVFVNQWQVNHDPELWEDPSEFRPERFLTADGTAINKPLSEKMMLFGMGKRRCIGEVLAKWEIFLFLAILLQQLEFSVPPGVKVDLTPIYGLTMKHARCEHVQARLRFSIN
Procedure: (§2) Water used in the assay and analysis was purified by ELGA Lab purification systems. Potassium phosphate buffer (PB) in concentration of 100 mM and MgCl2 in concentration of 33 mM were used. […] Microsomes were pulled out of the −80° C. freezer to thaw on ice, labeled the date and put back to freezer immediately after using. 20 μL of the substrates solutions were added to corresponding wells. 20 μL PB were added to Blank wells. 2 μL of the test compounds and positive control working solution were added to corresponding wells. Then, HLM working solution was prepared. 158 μL of the HLM working solution was added to all wells of incubation plate. The plate was pre-warmed for about 10 min at 37° C. water bath. Then, NADPH cofactor solution was prepared. 20 μL NADPH cofactor was added to all incubation wells. The solution was mixed and incubated for 10 minutes at 37° C. water bath. At the time point, the reaction was terminated by adding 400 μL cold stop solution (200 ng/mL Tolbutamide and 200 ng/mL Labetalol in ACN). The samples were centrifuged at 4000 rpm for 20 minutes to precipitate protein. 200 μL supernatant was transferred to 100 μL HPLC water and shaken for 10 min. XL fit was used to plot the percent of vehicle control versus the test compound concentrations, and for non-linear regression analysis of the data.

CYP2C19 = target: T2, CYP2C19 (Homo sapiens, UniProt P33261); test: Cytochrome inhibition in HLM; type: in vitro ADME
T2 construct: from tissue; host or cells: human liver microsomes (HLM)
T2 sequence (P33261 whole entry): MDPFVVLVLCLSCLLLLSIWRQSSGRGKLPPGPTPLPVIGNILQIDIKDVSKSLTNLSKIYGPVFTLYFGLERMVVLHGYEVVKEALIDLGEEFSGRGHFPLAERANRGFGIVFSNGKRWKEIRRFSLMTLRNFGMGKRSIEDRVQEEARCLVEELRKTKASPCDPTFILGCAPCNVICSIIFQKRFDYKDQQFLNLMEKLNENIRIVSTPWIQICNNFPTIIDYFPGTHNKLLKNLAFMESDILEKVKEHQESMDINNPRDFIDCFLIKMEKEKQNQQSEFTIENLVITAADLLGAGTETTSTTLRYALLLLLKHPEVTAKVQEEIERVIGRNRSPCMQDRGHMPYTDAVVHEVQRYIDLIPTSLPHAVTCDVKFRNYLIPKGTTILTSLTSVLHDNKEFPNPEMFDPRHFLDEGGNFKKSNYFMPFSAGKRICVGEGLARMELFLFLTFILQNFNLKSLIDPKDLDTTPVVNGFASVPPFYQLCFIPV
Procedure: as §2, with “data. IC50 values were determined using 3- or 4-parameter logistic equation.” for “data.”

CYP2C9 = target: T3, CYP2C9 (Homo sapiens, UniProt P11712); test: Cytochrome inhibition in HLM; type: in vitro ADME
T3 construct: from tissue; host or cells: human liver microsomes (HLM)
T3 sequence (P11712 whole entry): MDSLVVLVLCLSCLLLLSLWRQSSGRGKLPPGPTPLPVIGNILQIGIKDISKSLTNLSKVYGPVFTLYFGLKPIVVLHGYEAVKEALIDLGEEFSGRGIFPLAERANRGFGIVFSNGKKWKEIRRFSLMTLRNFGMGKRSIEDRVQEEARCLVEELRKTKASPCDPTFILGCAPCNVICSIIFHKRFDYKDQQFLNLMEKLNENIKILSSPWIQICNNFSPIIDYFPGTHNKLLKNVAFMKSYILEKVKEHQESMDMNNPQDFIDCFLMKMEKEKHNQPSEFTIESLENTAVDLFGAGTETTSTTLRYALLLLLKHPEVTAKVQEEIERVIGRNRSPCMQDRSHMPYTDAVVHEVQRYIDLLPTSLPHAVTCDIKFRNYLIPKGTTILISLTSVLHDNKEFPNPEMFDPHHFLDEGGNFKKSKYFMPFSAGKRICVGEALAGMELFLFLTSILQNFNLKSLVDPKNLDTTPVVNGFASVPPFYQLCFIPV
Procedure: as §2, with “data. IC50 values were determined using 3- or 4-parameter logistic equation.” for “data.”

CYP2D6 = target: T4, CYP2D6 (Homo sapiens, UniProt P10635); test: Cytochrome inhibition in HLM; type: in vitro ADME
T4 construct: from tissue; host or cells: human liver microsomes (HLM)
T4 sequence (P10635 whole entry): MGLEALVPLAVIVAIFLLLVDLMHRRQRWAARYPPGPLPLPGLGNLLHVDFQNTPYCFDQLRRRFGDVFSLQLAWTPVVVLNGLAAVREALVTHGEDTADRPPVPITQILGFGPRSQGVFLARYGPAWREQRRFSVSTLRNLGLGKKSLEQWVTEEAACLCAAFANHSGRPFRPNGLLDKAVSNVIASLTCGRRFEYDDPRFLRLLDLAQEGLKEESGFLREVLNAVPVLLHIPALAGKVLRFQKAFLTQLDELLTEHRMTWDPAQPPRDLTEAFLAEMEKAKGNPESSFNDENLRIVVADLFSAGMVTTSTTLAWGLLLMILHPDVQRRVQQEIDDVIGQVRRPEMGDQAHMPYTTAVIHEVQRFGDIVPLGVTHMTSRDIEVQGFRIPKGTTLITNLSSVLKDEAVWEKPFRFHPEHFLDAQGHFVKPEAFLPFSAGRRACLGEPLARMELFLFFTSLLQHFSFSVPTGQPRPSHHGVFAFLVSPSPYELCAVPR
Procedure: as §2, with “data. IC50 values were determined using 3- or 4-parameter logistic equation.” for “data.”

CYP3A4-M = target: T5, CYP3A4-M (Homo sapiens, UniProt P08684); test: Cytochrome inhibition in HLM; type: in vitro ADME
T5 construct: from tissue; host or cells: human liver microsomes (HLM)
T5 sequence (P08684 whole entry): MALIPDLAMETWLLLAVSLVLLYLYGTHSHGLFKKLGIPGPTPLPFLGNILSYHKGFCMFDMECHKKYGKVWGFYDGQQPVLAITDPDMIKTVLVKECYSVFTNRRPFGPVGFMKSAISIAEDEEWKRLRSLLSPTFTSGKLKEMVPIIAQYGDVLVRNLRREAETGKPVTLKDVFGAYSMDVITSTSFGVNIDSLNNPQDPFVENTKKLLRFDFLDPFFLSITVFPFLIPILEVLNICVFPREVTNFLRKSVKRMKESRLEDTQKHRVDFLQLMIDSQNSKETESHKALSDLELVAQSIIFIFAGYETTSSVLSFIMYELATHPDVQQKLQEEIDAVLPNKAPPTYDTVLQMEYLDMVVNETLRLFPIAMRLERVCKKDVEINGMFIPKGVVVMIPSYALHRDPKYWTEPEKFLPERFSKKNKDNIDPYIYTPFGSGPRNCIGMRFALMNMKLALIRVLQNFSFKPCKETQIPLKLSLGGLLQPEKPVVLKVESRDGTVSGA
Procedure: as §2, with “data. IC50 values were determined using 3- or 4-parameter logistic equation.” for “data.”

O=C(Nc1cccc(C(=O)N2CCN(c3ccnc4[nH]ccc34)C2)c1)c1cccc(C(F)(F)F)c1 [Compound 2]
concentration of highest activity in CTGF assay (close to negative control) ([1]; MRC-5): 0.041 µM
concentration of maximum inhibition of α-actin expression ([2]; MRC-5): 0.37 µM
maximum effect on α-actin expression ([2]; at 0.37 μM): 1.5 fold
CC50 (LX-2 cells): 7.3 µM
IC50 (CYP1A2): 10.6 µM
IC50 (CYP2C19): 6.56 µM
IC50 (CYP2C9): 2.7 µM
IC50 (CYP2D6): 6.97 µM
IC50 (CYP3A4-M): 7.36 µM

Cc1ccc2c(Nc3cccc(C(F)(F)F)c3)noc2c1C#Cc1cnc2cccnn12 [Compound 1]
effect on CTGF expression ([1]; all the concentrations used): no inhibition potency
dose dependence of effect on α-actin expression ([2]; MRC-5): robust dose-dependent effect
CC50 (LX-2 cells): 3.3 µM
IC50 (CYP1A2): 7.36 µM
IC50 (CYP2C19): > 50 µM
IC50 (CYP2C9): > 50 µM
IC50 (CYP2D6): > 50 µM
IC50 (CYP3A4-M): > 50 µM
